{"source": "patent US8895277B2", "about": "“Legume isoprene synthase for production of isoprene” (Danisco US Inc., priority 2012, dated 2014)", "key": {"[1]": {"molecular_target": "Populus alba isoprene synthase, P. alba variant 2 (Populus alba, UniProt Q50L36)", "type": "biochemical", "details": "substrate DMAPP; 34° C.; Avg Value"}, "[2]": {"molecular_target": "Populus alba isoprene synthase, P. alba variant 1 (Populus alba, UniProt Q50L36)", "type": "biochemical", "details": "substrate DMAPP; 34° C.; Avg Value"}, "[3]": {"test_system": "E. coli expressing P. alba variant 3 IspS", "test": "DMAPP toxicity relief: growth in presence of MVA", "details": "FIG. 13"}, "[4]": {"test_system": "E. coli expressing P. alba variant 2 IspS"}, "[5]": {"test_system": "E. coli expressing A. hypogaea IspS", "test": "DMAPP toxicity relief: growth in presence of MVA", "details": "FIG. 13"}, "[6]": {"test_system": "E. coli expressing P. alba variant 1 IspS", "test": "DMAPP toxicity relief: growth in presence of MVA", "details": "15 to 75 mM MVA; FIG. 13"}, "[7]": {"substrate": "CC(C)=CCOP(=O)(O)OP(=O)(O)O", "test": "purified protein, by the assay type", "details": "other: substrate DMAPP, 34° C., Avg Value"}}, "data": [{"molecule": "CC(C)=CCOP(=O)(O)OP(=O)(O)O", "note": "[DMAPP, 3,3-dimethylallyl diphosphate]", "values": [{"measurement": "Km", "setting": "[1]", "value": 2880, "unit": "µM"}, {"measurement": "Km", "setting": "[2]", "value": 2790, "unit": "µM"}]}, {"molecule": "C[C@@](O)(CCO)CC(=O)O", "note": "[MVA, mevalonic acid]", "values": [{"measurement": "MVA concentration at which growth was partially inhibited", "setting": "[3]", "value": "at least 30 mM"}, {"measurement": "MVA concentration at which growth was inhibited", "setting": "[4]", "value": "higher than 15 mM"}, {"measurement": "MVA concentration at which significant growth was seen", "setting": "[5]", "value": "15 to 45", "unit": "mM"}, {"measurement": "Growth inhibition by MVA", "setting": "[6]", "value": "growth was inhibited at any concentration of MVA tested"}]}, {"molecule": "Populus alba isoprene synthase (P. alba IspS), wild type (WT) (Populus alba) (protein) MEARRSANYEPNSWDYDYLLSSDTDESIEVYKDKAKKLEAEVRREINNEKAEFLTLLELIDNVQRLGLGYRFESDIRGALDRFVSSGGFDAVTKTSLHGTALSFRLLRQHGFEVSQEAFSGFKDQNGNFLENLKEDIKAILSLYEASFLALEGENILDEAKVFAISHLKELSEEKIGKELAEQVNHALELPLHRRTQRLEAVWSIEAYRKKEDANQVLLELAILDYNMIQSVYQRDLRETSRWWRRVGLATKLHFARDRLIESFYWAVGVAFEPQYSDCRNSVAKMFSFVTIIDDIYDVYGTLDELELFTDAVERWDVNAINDLPDYMKLCFLALYNTINEIAYDNLKDKGENILPYLTKAWADLCNAFLQEAKWLYNKSTPTFDDYFGNAWKSSSGPLQLVFAYFAVVQNIKKEEIENLQKYHDTISRPSHIFRLCNDLASASAEIARGETANSVSCYMRTKGISEELATESVMNLIDETWKKMNKEKLGGSLFAKPFVETAINLARQSHCTYHNGDAHTSPDELTRKRVLSVITEPILPFER", "values": [{"measurement": "Km", "setting": "[7]", "value": 2830, "unit": "µM"}]}, {"molecule": "Arachis hypogaea isoprene synthase (A. hypogaea IspS), SEQ ID NO: 3 (Arachis hypogaea) (protein) MNTRRSANYQPNLWDFEFLQSVENDLQVERLEERARKLEEEVRGLMKKVEIEPLSLLELMDNVERLGLTYKFEEDIKSALNNRIVPLLHHHTINKYGLHATALSFRFLRQHAFHVSPDVFESFKEEGKFKKEISGDVLGLLNLYETSYLGFEGETILDEARAFSATHLKNLLQTNQVQNKVMAEKVRHALELPYHRRVHRLEARWFIERYEQKEAHDGALLELAKLDFNMVQSVMKKELQELSRWWREIGLTSKLDFVRDRLMEVYFWALGMAPHPQLTECRKAVTKMFGLVTIIDDVYDVYGTLDELQLFTDAVDRWDVNAVETLPDYMKLCYLALYNSVNDTAYSTLREKGDNSLPHLAKSWRDLCKAFLQEAKWSNNKIIPPFDAYIRNASVSSSGGALLAPCYFSVTQDSTSQAIDSITNYHGIVRSSCAIFRLCNDLATSAAELERGETTNSITSYMTENGTTEEEARESLGKLIDQEWKKMNRDVVLESAYPNVFKEIAINMARVSHCTYQYGDGLGRPDDTAENRIKLSLIEPIPIN", "values": [{"measurement": "Km", "setting": "[7]", "value": 18300, "unit": "µM"}]}]}
